Measurements from publication PMC8623418, “Novel Multitarget Hydroxamic Acids with a Natural Origin CAP Group against Alzheimer’s Disease: Synthesis, Docking and Biological Evaluation” (Pharmaceutics, 2021).

Tests used:
HDAC6 = biological target: T1, HDAC6 (Homo sapiens, UniProt Q9UBN7); test: HDAC6 enzyme activity, FLUOR DE LYS fluorometric kit; type: biochemical; conditions: mean ± SEM; read-out: IC50 HDAC6 Inhibitory Activity
T1 construct: purchased Enzo Life Sciences (Enzo Biochem, New York, NY, USA)
T1 sequence (Q9UBN7 1-1215): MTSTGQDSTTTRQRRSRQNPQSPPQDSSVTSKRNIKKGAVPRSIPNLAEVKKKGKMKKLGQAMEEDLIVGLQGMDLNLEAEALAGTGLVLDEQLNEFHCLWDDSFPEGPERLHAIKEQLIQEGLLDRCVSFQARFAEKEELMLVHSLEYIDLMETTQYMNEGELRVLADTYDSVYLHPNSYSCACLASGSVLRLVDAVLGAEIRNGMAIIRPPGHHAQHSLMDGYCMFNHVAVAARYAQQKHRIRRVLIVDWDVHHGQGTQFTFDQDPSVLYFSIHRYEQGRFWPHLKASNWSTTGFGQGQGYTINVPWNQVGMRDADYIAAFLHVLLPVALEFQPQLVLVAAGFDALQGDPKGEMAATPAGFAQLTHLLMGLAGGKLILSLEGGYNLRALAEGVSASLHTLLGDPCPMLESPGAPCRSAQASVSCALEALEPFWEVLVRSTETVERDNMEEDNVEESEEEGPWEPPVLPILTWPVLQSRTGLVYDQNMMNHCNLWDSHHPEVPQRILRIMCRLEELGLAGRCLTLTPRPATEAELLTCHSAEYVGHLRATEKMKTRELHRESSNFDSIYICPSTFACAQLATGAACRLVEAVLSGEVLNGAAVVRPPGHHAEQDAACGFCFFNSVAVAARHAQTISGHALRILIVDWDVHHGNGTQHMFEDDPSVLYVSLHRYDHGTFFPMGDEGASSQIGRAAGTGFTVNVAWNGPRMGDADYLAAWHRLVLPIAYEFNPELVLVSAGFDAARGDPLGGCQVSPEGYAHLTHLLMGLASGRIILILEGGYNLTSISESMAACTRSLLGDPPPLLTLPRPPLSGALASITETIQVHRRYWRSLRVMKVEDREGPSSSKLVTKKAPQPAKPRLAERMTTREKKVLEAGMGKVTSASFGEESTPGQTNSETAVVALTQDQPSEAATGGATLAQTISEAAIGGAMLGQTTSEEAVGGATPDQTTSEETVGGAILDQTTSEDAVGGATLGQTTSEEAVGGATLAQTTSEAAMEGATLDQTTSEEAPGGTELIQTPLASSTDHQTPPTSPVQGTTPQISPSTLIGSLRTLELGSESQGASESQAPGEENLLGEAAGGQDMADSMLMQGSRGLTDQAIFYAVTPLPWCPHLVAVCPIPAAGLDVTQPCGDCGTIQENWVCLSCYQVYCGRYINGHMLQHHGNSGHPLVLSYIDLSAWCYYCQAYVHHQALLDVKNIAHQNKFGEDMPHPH

5xFAD transgenic mice [1] = test: Open field test in 5xFAD mice; type: in vivo; conditions: 15 mg/kg i.p. for 20 days, 11-month-old male 5xFAD mice
Protocol: (§1) All animal procedures were approved by the Animal Care and Use Committee of IPAC RAS. For in vivo studies, 11-month-old male mice of the 5xFAD line (Tg(APPSwFlLon,PSEN1*M146L*L286V) 6799Vas/J) were used. The animals were housed in cages with free access to water and food in a room with a 12 h/12 h light–dark cycle, at a temperature of 23 ± 1 °C and humidity of 50 ± 5%. Before the series of experiments, animals were randomly divided into four groups (n = 8 per group): (1) wild-type group (C57BL6/j mouse line); (2) 5xFAD group; (3) 5xFAD + 15 group; and (4) 5xFAD + 25 group.
(§2) Both compounds 15 and 25 were dissolved in saline solution and DMSO (10%) immediately before use and intraperitoneally administered to animals for 20 days at a dose of 15 mg/kg body weight for experiments. In the control group, the vehicle solution (saline and DMSO (10%), intraperitoneal) was administered with the same time schedule.
The open field box consisted of a square, non-transparent, grey box (40 cm × 40 cm × 40 cm). Illumination intensity was kept at 50 lux. During a session, a single animal was allowed to explore the empty open field, and its baseline level of activity was measured. The session lasted for 10 min (Figure 5A). […] The number of standing events was manually counted in a blind manner by one observer. […]

β-amyloid 1–42 = system: T2, β-amyloid 1–42; test: β-amyloid 1–42 aggregation, Thioflavin T fluorescence; type: biochemical; conditions: 100 μM, 72 h incubation
T2 construct: fragments Aβ1–40 and Aβ1–42
Protocol: The effect of the studied compounds on the aggregation of β-amyloid (1–40/1–42) was analyzed using the method of recording Thioflavin T fluorescence (10 µM) for 72 h at 37 °C. The fluorescence signal was measured using a multifunctional flatbed analyzer, the Cytation ™ 3 (BioTek Instruments, Inc., Winooski, VT, USA), at λex = 450 nm, λem = 480 nm.
The effect of hydroxamic acids on the stage of aggregation of the pathological β-amyloid peptide was investigated for 72 h using two model systems—fragments Aβ1–40 and Aβ1–42. The fluorophore Thioflavin T was used as an indicator of the ongoing fibrillation process, the interaction of which with proteins in the state of amyloid fibrils leads to an increase in the fluorescence signal.

5xFAD transgenic mice [2] = test: Novel Object Recognition Test in 5xFAD mice; type: in vivo; conditions: 15 mg/kg i.p. for 20 days, testing trial 24 h after familiarization
Protocol: as §1, §2
The Novel Object Recognition Test assesses a mouse’s ability to remember if it has previously encountered an object or not. The same box that had been used in the open field test was used for the Novel Object Recognition Test. Mice were habituated to the box one day before the test, during the open field test. […] All trials were videotaped and analyzed with a computer-operated EthoVision XT system (Noldus, Wageningen, the Netherlands). […]

SMILES | IC50 (HDAC6) | Open field: standing events, distance, movement rate, time in central and peripheral areas (5xFAD transgenic mice [1]) | Effect on β-amyloid 1–42 aggregation (β-amyloid 1–42) | Novel object preference (episodic memory) (5xFAD transgenic mice [2])
O=C(CCCCCCC(=O)NC1C2CC3CC(C2)CC1C3)NO (centres unmarked) [compound 15, N^1-(Adamant-2-yl)-N^8-Hydroxyoctanediamide] | 0.96 ± 0.01 µM | did not show any alteration | noticeable fibrillation inhibition | significantly showed a strong preference and spent more time studying a new object
O=C(/C=C/c1ccc(C(=O)NO)cc1)NC1C2CC3CC(C2)CC1C3 (centres unmarked) [compound 25, 4-((E)-3-((-Adamantan-2-yl)amino)-3-Oxoprop-1-en-1-yl)-N-Hydroxybenzamide] | 6.52 ± 0.4 µM | did not show any alteration | noticeable fibrillation inhibition | began to show memory impairment when presented with a new object
